Test results published in BindingDB's records for doi:10.1046/j.1471-4159.1998.70062252.x (Paris-Sud University, 1998).
Several values for one entry are separate records, joined by “and”; a condition that tells them apart may be missing. Equal entries are not always repeated.

Biological target: 5-hydroxytryptamine receptor 4 (Homo sapiens, UniProt Q13639)
Sequence (Q13639 whole entry): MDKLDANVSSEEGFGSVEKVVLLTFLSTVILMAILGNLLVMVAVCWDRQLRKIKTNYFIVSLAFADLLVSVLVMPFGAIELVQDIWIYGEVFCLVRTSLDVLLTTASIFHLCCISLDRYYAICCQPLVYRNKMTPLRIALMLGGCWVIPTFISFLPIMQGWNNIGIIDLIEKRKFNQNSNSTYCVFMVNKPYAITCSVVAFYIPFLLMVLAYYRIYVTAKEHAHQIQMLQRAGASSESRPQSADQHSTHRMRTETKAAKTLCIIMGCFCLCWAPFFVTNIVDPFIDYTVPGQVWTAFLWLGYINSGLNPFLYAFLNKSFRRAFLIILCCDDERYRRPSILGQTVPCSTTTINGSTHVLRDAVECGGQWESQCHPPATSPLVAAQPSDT

Compound | Ki
CCn1c(=O)n(C(=O)NC2CC3CCC(C2)N3C)c2ccccc21 (stereo not drawn) [BIMU 1] | 373 nM and 123 nM and 66 nM and 38.8 nM
Cn1cc(C(=O)OCC2CCN(CCNS(C)(=O)=O)CC2)c2ccccc21 [GR 113808] | 0.07 nM
COc1cc(N)c(Cl)cc1C(=O)NC1CN2CCC1CC2 (stereo not drawn) [ZACOPRIDE,R] | > 10000 nM
